Experimental data taken from the supplement of paper PMC10627819.
Values after ≈ are worked out from the molar mass of the structure shown.

Tests used:
[1] = test system: B. subtilis 168; experiment: Bliss interaction score (quartile over a dose matrix) (fitness difference); higher = more antagonism (negative = synergy)
Summary of the method: (§1)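 The Bliss score takes observed fitness and subtracts the expected fitness, calculated as a product of single-drug fitness values. Those single-drug values were inferred from the combination data. Fitness is OD595 at entry into stationary phase divided by the plate's robust no-drug mean, capped at 1, and the score is summarised by quartiles across technical, biological and donor/recipient replicates.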

[2] = test system: S. aureus Newman; experiment: as above
Summary of the method: as §1

[3] = test system: S. pneumoniae D39V; experiment: as above
Summary of the method: as §1

[4] = test system: S. aureus DSM 20231; experiment: as above
Summary of the method: as §1

[5] = test system: B. subtilis 168; experiment: fitness (endpoint OD595 vs no drug) (fraction); higher = more growth
Summary of the method: (§2)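 Bacterial growth was followed in 384-well plates seeded at OD595 0.01, with 30 µl per well, or 55 µl for S. pneumoniae, in TSB, LB Lennox or CY at 37 °C. OD595 was read every 30 min for 14 h, and each reading had the first reading subtracted as background. Fitness is the background-corrected optical density at entry into stationary phase divided by the robust mean of the no-drug control wells. This ratio is capped at 1.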

[6] = test system: S. aureus Newman; experiment: as above
Summary of the method: as §2

[7] = test system: S. pneumoniae D39V; experiment: as above
Summary of the method: as §2

[8] = test system: S. aureus DSM 20231; experiment: as above
Summary of the method: as §2

[9] = test system: B. subtilis 168
[10] = test system: S. aureus Newman
[11] = test system: S. pneumoniae D39V
[12] = test system: S. aureus DSM 20231
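For Bliss interaction score (quartile over a dose matrix) in this document: first quartile when negative (synergy) and third quartile when positive (antagonism).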

CCN(CC)CCOC(=O)c1ccc(N)cc1 [Procaine] + CN(N=O)C(=O)N[C@@H](C=O)[C@@H](O)[C@H](O)[C@H](O)CO [Streptozotocin]
Conditions | Bliss interaction score
[1] | 0.0445
[2] | 0.0489
[3] | 0.0574
[4] | -0.076

fitness, [5], one replicate
Conditions | first compound 85.5 µg/mL | first compound 171 µg/mL | first compound 342 µg/mL
partner 0.15 µg/mL | 0.98 | 0.945 | 0.891
partner 0.3 µg/mL | 0.948 | 0.988 | 0.954
partner 0.6 µg/mL | 0.901 | 0.944 | 0.881

fitness
Conditions | first compound 85.5 µg/mL | first compound 171 µg/mL | first compound 342 µg/mL
[6], partner 0.15 µg/mL | 0.894 | 0.85 | 0.904
[6], partner 0.3 µg/mL | 0.809 | 0.798 | 0.799
[6], partner 0.6 µg/mL | 0.624 | 0.602 | 0.617
[7], partner 1.2 µg/mL | 0.977 | 0.994 | 0.963
[7], partner 2.4 µg/mL | 0.994 | ≥ 1 | 0.945
[7], partner 4.8 µg/mL | 0.993 | ≥ 1 | 0.961
[8], partner 0.15 µg/mL | 0.822 | 0.848 | 0.851
[8], partner 0.3 µg/mL | 0.724 | 0.799 | 0.786
[8], partner 0.6 µg/mL | 0.593 | 0.682 | 0.651

CCN(CC)CCOC(=O)c1ccc(N)cc1 [Procaine] + CN[C@@H]1[C@H](O)[C@H](NC)[C@H]2O[C@@]3(O)C(=O)C[C@@H](C)O[C@H]3O[C@@H]2[C@H]1O [Spectinomycin]
Conditions | Bliss interaction score
[1] | -0.0468
[2] | 0.0891
[3] | 0.0382
[4] | 0.0496

fitness
Conditions | first compound 85.5 µg/mL | first compound 171 µg/mL | first compound 342 µg/mL
[5], partner 2 µg/mL | 0.972 | 0.926 | 0.923
[5], partner 4 µg/mL | 0.938 | 0.963 | 0.93
[5], partner 8 µg/mL | 0.895 | 0.84 | 0.824
[6], partner 4 µg/mL | 0.886 | 0.891 | 0.89
[6], partner 8 µg/mL | ≥ 1 | 0.968 | 0.962
[6], partner 16 µg/mL | 0.896 | 0.905 | 0.88
[7], partner 4 µg/mL | ≥ 1 | 0.973 | 0.914
[7], partner 8 µg/mL | 0.964 | 0.955 | 0.929
[8], partner 4 µg/mL | 0.959 | 0.931 | 0.914
[8], partner 8 µg/mL | 0.948 | 0.911 | 0.928
[8], partner 16 µg/mL | 0.82 | 0.848 | 0.868

fitness, one replicate
Conditions | first compound 85.5 µg/mL | first compound 171 µg/mL | first compound 342 µg/mL
[6], partner 32 µg/mL | 0.678 | 0.652 | 0.629
[6], partner 64 µg/mL | 0.139 | 0.132 | 0.147
[7], partner 16 µg/mL | 0.866 | 0.857 | 0.849
[8], partner 32 µg/mL | 0.744 | 0.724 | 0.813
[8], partner 64 µg/mL | 0.0918 | 0.0696 | 0.107

CCN(CC)CCOC(=O)c1ccc(N)cc1 [Procaine] + COc1ccc(C[C@H](N)C(=O)N[C@H]2[C@@H](O)[C@H](n3cnc4c(N(C)C)ncnc43)O[C@@H]2CO)cc1 [Puromycin]
Conditions | Bliss interaction score
[1] | 0.0785
[2] | 0.063
[3] | 0.0736
[4] | 0.047

fitness
Conditions | first compound 85.5 µg/mL | first compound 171 µg/mL | first compound 342 µg/mL
[5], partner 0.39 µg/mL | 0.931 | 0.964 | 0.899
[5], partner 0.78 µg/mL | 0.935 | 0.913 | 0.896
[5], partner 1.56 µg/mL | 0.934 | 0.967 | 0.958
[6], partner 0.39 µg/mL | ≥ 1 | ≥ 1 | ≥ 1
[6], partner 0.78 µg/mL | ≥ 1 | 0.977 | 0.936
[6], partner 1.56 µg/mL | ≥ 1 | ≥ 1 | ≥ 1
[7], partner 1 µg/mL | 0.974 | 0.951 | 0.958
[7], partner 2 µg/mL | 0.948 | 0.966 | 0.955
[7], partner 4 µg/mL | 0.789 | 0.831 | 0.814
[8], partner 0.39 µg/mL | 0.996 | ≥ 1 | 0.916
[8], partner 0.78 µg/mL | ≥ 1 | ≥ 1 | ≥ 1
[8], partner 1.56 µg/mL | 0.994 | ≥ 1 | ≥ 1

fitness, [8], one replicate
Conditions | first compound 85.5 µg/mL | first compound 171 µg/mL | first compound 342 µg/mL
partner 3.12 µg/mL | 0.86 | 0.879 | ≥ 1
partner 6.24 µg/mL | 0.592 | 0.646 | 0.618

CCN(CC)CCOC(=O)c1ccc(N)cc1 [Procaine] + Cc1cc(NS(=O)(=O)c2ccc(N)cc2)no1 [Sulfamethoxazol]
Conditions | Bliss interaction score
[1] | -0.0492
[2] | 0.0323
[3] | 0.0407
[4] | 0.0626

fitness, one replicate
Conditions | first compound 85.5 µg/mL | first compound 171 µg/mL | first compound 342 µg/mL
[5], partner 0.5 µg/mL | 0.971 | 0.908 | 0.963
[6], partner 8 µg/mL | 0.88 | 0.892 | 0.934

fitness
Conditions | [5] | [6] | [7] | [8]
first compound 85.5 µg/mL, partner 1 µg/mL | 0.909 | 0.999 | 0.991 | 0.976
first compound 85.5 µg/mL, partner 2 µg/mL | 0.88 | 0.984 | 0.982 | 0.979
first compound 85.5 µg/mL, partner 4 µg/mL | 0.905 | 0.959 | 0.924 | 0.999
first compound 171 µg/mL, partner 1 µg/mL | 0.865 | 0.99 | 0.979 | 0.992
first compound 171 µg/mL, partner 2 µg/mL | 0.836 | 0.981 | ≥ 1 | ≥ 1
first compound 171 µg/mL, partner 4 µg/mL | 0.936 | 0.937 | 0.923 | ≥ 1
first compound 342 µg/mL, partner 1 µg/mL | 0.88 | – | 0.979 | 0.944
first compound 342 µg/mL, partner 2 µg/mL | 0.78 | – | 0.974 | ≥ 1
first compound 342 µg/mL, partner 4 µg/mL | 0.918 | – | 0.908 | ≥ 1

Cn1nnc(-c2ccc(-c3ccc(N4C[C@H](CO)OC4=O)cc3F)cn2)n1 [Tedizolid]
Conditions | MIC [mg/L]
[9] | 0.5 (≈ 1.35 µM)
[10] | 0.3 (≈ 0.81 µM)
[11] | 0.125 (≈ 0.338 µM)
[12] | 0.3 (≈ 0.81 µM)

fitness
Conditions | 0.0312 µg/mL | 0.0625 µg/mL | 0.125 µg/mL | 0.25 µg/mL | 0.5 µg/mL
[5] | 0.943 | 0.901 | 0.643 | – | –
[6] | – | 0.936 | 0.859 | 0.434 | –
[7] | – | – | 0.719 | 0.416 | 0.168
[8] | – | 0.923 | 0.809 | 0.229 | –
